Holding throughout (assay): inhibition of tumour cell growth, NCI panel, 48 h
Assay [1] concerns HL-60(TB) leukemia.
The test system of assay [2] is LOX IMVI melanoma.
In assay [3] the test system is COLO 205 colon.
Assay [4] relates to HCT-116 colon.
Assay [5] has as its system SK-MEL-2 melanoma.
Assay [6] has as its system NCI-H23 lung.
Assay [7] has as its system HOP-62 NSCLC.
For assay [8], the system named is HCC-2998 colon.
The subject of assay [9] is MCF7 breast.

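Step 1: Grow cells in 96-well plates. Step 2: Expose to compound for 48 hours at 5 concentrations. Step 3: Interpolate endpoints linearly; if unreached, use highest concentration. GI50 = concentration required for 50% inhibition of growth. TGI denotes the concentration required for complete inhibition of growth.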

With `Cc1cc(N(CCC#N)CCC#N)ccc1/C=C/C(=O)Nc1cccc(Cl)c1`, the TGI in assay [1], in [2], in [3], in assay [4], in assay [5] and in [6] was more than 100 µM throughout. Further, the TGI in [7] and in assay [8] was more than 100 µM in each case.

As for `Cc1c(C#N)c(=O)[nH]c(=O)n1CCN1CCN(C(=O)NCCCCCCNC(=O)N2CCN(CCn3c(C)c(C#N)c(=O)[nH]c3=O)CC2)CC1`, the TGI in [1], in assay [2], in assay [3], in assay [4], in [6] and in assay [7] was more than 100 µM each time. In [8], this compound showed a TGI of more than 100 µM.

For the compound `C=C1COC(/C=C(\C)CC/C=C(\C)CCl)C1` (stereo not drawn), the TGI in assay [1], in assay [2], in [3], in assay [4], in [5] and in assay [6] was more than 100 µM throughout. Besides, the TGI in assay [7] and in assay [8] was more than 100 µM throughout.

In the case of `CC(=O)OC1CCn2nnc(CO[Si](C)(C)C(C)(C)C)c21` (stereo not drawn), the TGI in assay [3], in [4], in assay [5], in assay [6] and in assay [8] was more than 100 µM in each case.

Turning to `CCOC(=O)C(C)(c1cn(C)c2ccccc12)c1cn(C)c2ccccc12`, the TGI in [1], in [4], in assay [5], in [6], in assay [7] and in assay [8] was more than 100 µM each time.

Regarding `C=CCc1cc(OC)c2c(c1)C(O)CC(c1ccccc1)O2` (stereo not drawn), the TGI in [1], in [3], in assay [4], in assay [5], in [6] and in assay [7] was more than 100 µM throughout. The compound also returned a TGI in assay [8] of more than 100 µM.

As for `CCOC(=O)C1Oc2ccc([N+](=O)[O-])c3c2C1(O)CCC3` (stereo not drawn), the TGI in assay [1], in assay [2], in assay [3], in [5], in [6] and in assay [7] was more than 100 µM throughout. In [8], this compound gave a TGI of more than 100 µM.

With `COc1ccc(C2CC(c3cc(OC)c(OC)c(OC)c3)=NN2C(C)=O)cc1OCC(=O)Nc1nc2ccc(C(F)(F)F)cc2s1` (stereo not drawn), the GI50 in [9] is 4.02 µM; in assay [2], 3.36 µM; in assay [3], 3.94 µM; in [5] it was 3.08 µM; in assay [6], 3.76 µM; in assay [7], 2.2 µM. Moreover, the GI50 in [8] was more than 100 µM. Besides, the TGI in assay [9] was more than 100 µM; in assay [2], more than 100 µM; in [3], more than 100 µM; in assay [5], 20.4 µM; in assay [6] it was 33 µM; in assay [7] it was 5.58 µM. The compound also came in with a TGI in assay [8] of more than 100 µM.

As to `Cc1cc2c(C)n(Cc3ccc(Cl)cc3Cl)nc2c(C#N)c1C`, the TGI in [1], in [2], in assay [3], in [4], in [5] and in assay [6] was more than 100 µM in each case. For the same compound, the TGI in assay [7] is 49.7 µM; in assay [8] it was more than 100 µM.

With `C[Si](C)(C)OC1(C#N)C2C3CC4C2C(=O)C2C4C3C21` (stereo not drawn), the TGI in assay [1], in assay [3], in assay [4], in assay [5], in assay [7] and in [8] was more than 100 µM each time.

For the compound `CCOc1ccc2nc(NC(=O)c3c/c(=N\NC(=O)C[N+](C)(C)C)c4ccc(O)cc4o3)sc2c1`, the TGI in assay [1] was 3.83 µM; in assay [2] it was 5.73 µM; in [3], 20.7 µM; in [4], more than 29.8 µM; in [5] it was 6.22 µM; in [6], 7.13 µM. Moreover, the TGI in assay [8] came out at 20.8 µM.

In the case of `O=S(=O)(c1ccccc1)C(CN1CCCCC1)S(=O)(=O)c1ccccc1`, the TGI in [1], in [2], in assay [3], in assay [5], in [6] and in assay [7] was more than 100 µM in each case. This compound gave a TGI in assay [8] of more than 100 µM.

Take `CCOC(=O)c1oc2ccc(OC)c3c2c1CCC3`: the TGI in assay [1], in [2], in [3], in assay [5], in assay [6] and in assay [7] was more than 100 µM in each case. The TGI in assay [8] is more than 100 µM.

`COc1cc(C(=O)C/C(CCC(=O)Nc2ccccc2[N+](=O)[O-])=N\NC(=O)CC#N)ccc1O`: the TGI in [1], in assay [2], in [3], in assay [5], in assay [6] and in assay [7] was more than 100 µM in each case. The compound also came in with a TGI in [8] of more than 100 µM.

As to `Brc1cccc(C2SCc3nc4ccccc4n32)c1` (stereo not drawn), the TGI in [1] is 34.9 µM; in assay [2], 28.6 µM; in [3] it was 38.6 µM; in assay [4] it was 29.4 µM; in [6], 44.7 µM; in assay [7], 40.7 µM.

`Cn1cnc2nc(Cl)nc(NC(C)(C)C(C)(C)O)c21`: the TGI in assay [1], in [3], in assay [4], in assay [5], in assay [6] and in assay [7] was more than 100 µM in each case. In addition, in assay [8], the TGI is more than 100 µM.

`CCCCCCc1cc(C(=O)Nc2cccc(C(F)(F)F)c2)nc(N)n1`: the TGI in assay [1], in assay [2], in assay [3], in assay [4], in assay [5] and in assay [6] was more than 100 µM throughout. Moreover, the TGI in assay [7] and in [8] was more than 100 µM each time.

As to `c1ccc(SC(CCCCC(Sc2ccccc2)Sc2ccccc2)Sc2ccccc2)cc1`, the TGI in [1], in assay [2], in assay [3], in assay [4], in assay [5] and in assay [6] was more than 100 µM each time. Also, the TGI in [7] and in assay [8] was more than 100 µM each time.

With `O=C(O)C1(P(=O)(O)O)CC1`, the TGI in assay [1], in assay [3], in [4], in assay [5], in [6] and in assay [7] was more than 100 µM each time. Besides, in assay [8], the TGI is more than 100 µM.

Consider `O=C1C(=O)N(c2ccc(Cl)c(Cl)c2)C(=O)C(=O)C1c1nc2ccccc2s1`, for which the TGI in assay [2], in assay [3], in assay [4], in assay [5], in assay [6] and in assay [7] was more than 100 µM each time. Also, the TGI in assay [8] is more than 100 µM.

Regarding `CSCC1CC(c2ccc(Cl)cc2)=NO1` (stereo not drawn), the TGI in assay [1], in [3], in assay [4], in [5], in [6] and in [7] was more than 100 µM throughout. The compound further had a TGI in assay [8] of more than 100 µM.

As for `O=c1cc(-c2ccccc2)[nH]c2cc(O)ccc12`, the TGI in assay [1] was 40.7 µM; in [2], 34.6 µM; in assay [3] it was 32.3 µM; in assay [4], 31.3 µM; in [5] it was 94.9 µM; in assay [6], 87.6 µM. Besides, the TGI came out at 70.9 µM in assay [7] and 74.7 µM in assay [8].

As for `COc1ccc(N=c2ssc3c(=S)ssc23)cc1`, the TGI is 28.2 µM in [1]; 34.1 µM in assay [2]; more than 100 µM in assay [4]; more than 100 µM in [5]; more than 100 µM in [6]; more than 100 µM in assay [7]. Further, the TGI in assay [8] is more than 100 µM.

For the compound `COc1ccc(C2=C(Cl)c3cc(OC)c(OC)cc3C2Cl)cc1OC` (stereo not drawn), the TGI in [1] was 35.3 µM; in assay [2], 31.1 µM; in [3], 32.5 µM; in [4], 30.3 µM; in assay [6] it was 38.2 µM; in assay [7], 36.6 µM.

Turning to `CCOC(=O)C(=O)Nc1c(CC)cccc1C(C)C`, the TGI in assay [2], in assay [3], in assay [4], in assay [5], in assay [6] and in assay [7] was more than 100 µM throughout. The TGI in assay [8] was more than 100 µM.

Regarding `Nn1c(-c2ccccc2Cl)nc2ccccc2c1=O`, the TGI in assay [1], in assay [3], in [4], in assay [5], in assay [6] and in [7] was more than 100 µM throughout. Besides, the TGI in assay [8] is more than 100 µM.

Turning to `CS(=O)(=O)Oc1cccc(/C=N/N=C(\N)NO)c1`, the TGI in [1] is 52.4 µM; in assay [3] it was more than 100 µM; in assay [4], more than 100 µM; in [5], more than 100 µM; in assay [6] it was more than 100 µM; in [7], more than 100 µM. Also, the TGI in assay [8] was 59.1 µM.

Take `CCOC(=O)C1=C(NC)OC/C1=N\NC(=O)c1ccccc1O`: the TGI in assay [1] was 71.4 µM; in [2] it was 70.4 µM; in assay [3] it was more than 100 µM; in assay [4], 58.3 µM; in assay [5], 48.2 µM; in [6] it was 54.9 µM. The TGI in assay [7] and in assay [8] was more than 100 µM in each case.

Regarding `N#CC(C(=O)CCC(=O)Nc1cccc(Cl)c1)c1ccccc1` (stereo not drawn), the TGI in assay [1], in [2], in [3], in [4], in assay [5] and in assay [6] was more than 100 µM each time. Moreover, the TGI in [7] and in [8] was more than 100 µM throughout.

As to `CCC1CN2CCc3cc(OC)c(OC)cc3C2CC1CC1c2cc(OC)c(OC)cc2CCN1C(=O)C1CCCN1C(=O)OCc1ccccc1` (stereo not drawn), the TGI in [1] was 28.9 µM; in assay [2], 29.1 µM; in assay [4] it was 25.8 µM; in [5] it was 33.6 µM; in assay [6] it was 32.7 µM; in assay [7], 31.8 µM. Moreover, the TGI in [8] turned out to be 30 µM.

Consider `COC1CC(OS(=O)(=O)c2ccc(C)cc2)C(OC(=O)c2ccccc2)C(C)O1` (stereo not drawn), for which the GI50 in assay [1], in [2], in assay [3], in assay [5], in assay [6] and in assay [7] was more than 100 µM each time. The GI50 in [8] is more than 100 µM. The TGI in assay [1] is more than 100 µM; in assay [2] it was more than 100 µM; in [3], more than 100 µM; in assay [4], more than 10 µM; in [5], more than 100 µM; in [6], more than 100 µM. Further, the TGI in assay [7] and in [8] was more than 100 µM each time.

In the case of `COc1cc2c(cc1OC(=O)CC(C)O)C1C(OC2=O)C(OC(C)=O)C=C2CCN(C)[C@H]21` (stereo partly drawn), the TGI in [2] was more than 100 µM; in assay [3] it was more than 100 µM; in assay [4], more than 100 µM; in assay [5], 41.5 µM; in [6] it was more than 100 µM; in assay [7], 55.7 µM. This compound displayed a TGI in assay [8] of more than 100 µM.

As to `c1ccc2c(C3NCCc4[nH]cnc43)cccc2c1` (stereo not drawn), the TGI in [2], in [3], in [4], in assay [5], in [6] and in [7] was more than 100 µM throughout. For the same compound, the TGI in [8] is more than 100 µM.

(Values after PubChem BioAssay (NCI).)
